The test system of one test is MDA-MB-231 (breast). In words: SRB anti-tumour (growth inhibition) assay, MDA-MB-231. Format: cell-based. The note with it: Homo sapiens, 48 h exposure, read-out: GI50 (concentration inhibiting 50% of cell growth). The procedure:
(§1) The compounds generated were tested against a series of cell lines from tumours. It quantitatively determined the cell growth and the viability, using a colorimetric assay type, using the reaction with sulforhodamine B (SRB), according to the technique described by Faircloth et al. (Journal of Tissue and Culture Methods 1988, 11, 201-205).
(§2) 96-well microtitre plates are inoculated with cells (5×10^3 cells per well) in aliquots of 195 μl of medium, incubating them during 18 h, in a medium without added compound, to allow the cells to adhere to the surface. Next, the compounds to be tested are added, in samples of 5 μl, at a range of concentrations of 10 to 10^−8 μg/ml, dissolved in DMSO/EtOH (0.2% in PS buffer). After 48 h exposure, the anti-tumour effect is measured using the Sulforhodamine B (SRB) technique: the cells are fixed adding 50 μl of cold […] (50%) (w/v) and it is incubated for 60 min. at 4° C. The plates are washed with deionized water and dried. 100 μl of SRB solution (0.4% w/v in 1% acetic acid) to each well and it is incubated during 10 min. at ambient temperature. The non-bound SRB is eliminated, washing with 1% acetic acid. The plates are air dried and the bound colorant is dissolved with Tris buffer. The optical densities are read in an automatic plate spectrophotometer reader at a wavelength of 490 nm.
(§3) For the compounds of formula (III), (IV), (V), (VI), (VII), (VIII), (IX) and the compounds of formula (XII), (XIII), (XIV), (XV), (XVI) and (XVIII).

In a further test the test system is A549 (lung). As to the kind of experiment: SRB anti-tumour (growth inhibition) assay, A549. Format: cell-based. As to conditions: Homo sapiens, 48 h exposure, read-out: GI50 (concentration inhibiting 50% of cell growth). The procedure: as §1, §2, §3
In the next test the test system is HT29 (colon). In words: SRB anti-tumour (growth inhibition) assay, HT29. Format: cell-based. The note with it: Homo sapiens, HT-29, 48 h exposure, read-out: GI50 (concentration inhibiting 50% of cell growth). The procedure: as §1, §2, §3
For the next test, the target named is T1, FGFR1 (Homo sapiens, UniProt P11362).
T1 construct: purchased Upstate
T1 sequence (P11362 22-822, species assumed): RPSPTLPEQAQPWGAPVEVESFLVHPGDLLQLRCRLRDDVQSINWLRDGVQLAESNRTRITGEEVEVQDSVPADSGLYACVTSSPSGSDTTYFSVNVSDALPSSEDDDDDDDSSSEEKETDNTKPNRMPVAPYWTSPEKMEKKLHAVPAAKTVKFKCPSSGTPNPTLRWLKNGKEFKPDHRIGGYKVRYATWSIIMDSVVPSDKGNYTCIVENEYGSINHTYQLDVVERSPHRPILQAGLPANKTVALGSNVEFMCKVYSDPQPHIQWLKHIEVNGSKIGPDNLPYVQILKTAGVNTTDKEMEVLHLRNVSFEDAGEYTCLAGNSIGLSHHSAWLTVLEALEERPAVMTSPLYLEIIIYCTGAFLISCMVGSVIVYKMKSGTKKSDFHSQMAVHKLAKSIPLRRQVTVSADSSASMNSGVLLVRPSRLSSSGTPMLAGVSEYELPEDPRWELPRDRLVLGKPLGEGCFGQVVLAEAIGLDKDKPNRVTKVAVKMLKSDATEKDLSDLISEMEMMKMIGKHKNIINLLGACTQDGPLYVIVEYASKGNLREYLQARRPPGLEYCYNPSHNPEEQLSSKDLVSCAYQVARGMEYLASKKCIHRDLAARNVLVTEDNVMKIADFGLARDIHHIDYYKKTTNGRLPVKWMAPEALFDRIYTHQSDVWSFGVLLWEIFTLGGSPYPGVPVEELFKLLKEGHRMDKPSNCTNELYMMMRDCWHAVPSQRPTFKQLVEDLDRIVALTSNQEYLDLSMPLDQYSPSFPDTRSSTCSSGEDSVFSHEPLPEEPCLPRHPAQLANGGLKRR
As to the kind of experiment: LabChip (Caliper) kinase assay, FGFR1. The class given is biochemical. As to conditions: for inhibition at 0.01 µM: compound at 10 nM; for inhibition at 0.01 µM / inhibition at 0.1 µM: read-out: remaining kinase activity (in %) / percentage of inhibition; for inhibition at 0.1 µM: compound at 100 nM; for IC50: ATP at Km, read-out: CI50 (the source's name). The procedure: (§4) The analysis of kinase activity described here was performed using LabChip (Caliper Life Sciences), specifically the Caliper LC3000 and the EZ Reader II instruments.
(§5) The kinase assay used measures the conversion of a fluorescent peptide (substrate) to a phosphorylated product. The reaction mixture, in a microplate well, is introduced by a capillary in a chip where the non-phosphorylated substrate and the phosphorylated product are separated by […]. The intensity of the fluorescent signal over time is related to the reaction progress. The phosphorylated product migrates quicker than the non-phosphorylated substrate and the signals of the two forms of the peptide appear as differentiated peaks. The Caliper determines the peak height and calculates the ratio of product to the peak sum (P/(P+S)). This value is used to compare wells with compounds and wells with controls and thus determine the % of inhibition for the given product.
(§6) The followings kinases were used for the enzymatic inhibition studies, between brackets the value of the Michaelis-Menten constant, Km, of the ATP (Adenosine triphosphate) for each kinase, in μM: obtained from Carna Biosciences: MAPKAPK2 (4.6), AurA (3.6), AurB (5), PKCζ (3.8), RSK1 (23.3), PRAK (5), Erk1 (33.4), PKD2 (32.1), CK1d (16.3), CHK1 (33), ABL (61.7), FYN (36), LYNa (17), CHK2 (57.8), MET (79.5), LCK (28.5), SRC (38), GSK3β (7.3), Erk2 (62.1), PKACα (1.7), AKT2 (186.1), INSR (871.8), p38a (396.5), AKT1(48), MSK1 (21.2), PKCβ2 (84.8), ROCK2 (3.3), PIM2 (4.9), AMPK (38.6), KDR (164.8), IRAK4 (196.5), SGK1 (121.8), SYK (33.5); obtained from Invitrogen: CDK2 (57.6), BTK (123), HGK (80); obtained from Upstate: MST2 (36.6), PKGα (16), PAK2 (1.9), IGF1R (320), FGFR1 (171), MARK1 (33), CAMK2δ (22.4), c-TAK1 (66), DYRK1a (18.1), CaMK4 (3.9), FLT3 (350), c-Raf (6.2), P70S6K (95).
(§7) The compounds were dissolved in 100% DMSO and were diluted at 25 times the final concentration desired for the assay. In the case of the determination of Cl50, serial dilutions were made to reach eight concentrations and give rise to the inhibition curve. 1 μL of each concentration is transferred, in duplicate to a 384-well microplate. 12 μL of enzymatic buffer is added to each well containing purified kinase (several suppliers as indicated above), 100 mM HEPES, pH 7.5, 1 mM DTT (Calbiochem), 0.002% Brij-35 (Sigma) and also in presence of 10 mM MgCl2 as cofactor, except for INSR and IRAK4 wherein 10 mM MnCl2 is used instead of MgCl2. For the kinases CAMK26 and CAMK4, 1 mM CaCl2 and 6.7 μg/mL of calmodulin are also added. For KDR kinase, 0.05% of the CHAPSO detergent is added. For the c-Raf kinase, 10 mM MnCl2 is added. For PKCβ2 0.02 μg/mL of PS/PMA is added. For PKGα se 10 μM of cGMP (cyclic guanosine monophosphate) is added. The compound and the enzyme are left for 15 minutes preincubation and, then, the following are added to each well: 12 μL of peptide buffer/ATP containing 100 mM HEPES, pH 7.5, 1.5 μM peptide marker with fluorescein (specific for the corresponding kinase), ATP (at concentration KM), and 0.002% Brij-35 to start the reaction. Generally, the reactions are incubated for 1-1.5 h at ambient temperature to obtain an adequate conversion (15-40%) of the peptide to the phosphorylated product. The reactions were ended by the addition of 45 μL of buffer containing 0 mM EDTA. The microplates were read by the LabChip 3000 using a 12-channel LabChip. The P/(P+S) values were obtained as described above and the CI50 curves were generated using XIfit.
(§8) Table 9a has the 0150 data obtained in pairs of compound-kinase selected from the compounds of formula (VII), (VIII), (IX), (XVI), (XVII) and (XVIII) after taking inhibition measurements at 100 nM and 10 nM. Those couples that provide >70% of inhibition at 10 nM were consider for measuring its IC50. […]

In the next test the target is T2, KDR (Homo sapiens, UniProt P35968).
T2 construct: purchased Carna Biosciences
T2 sequence (P35968 20-1356): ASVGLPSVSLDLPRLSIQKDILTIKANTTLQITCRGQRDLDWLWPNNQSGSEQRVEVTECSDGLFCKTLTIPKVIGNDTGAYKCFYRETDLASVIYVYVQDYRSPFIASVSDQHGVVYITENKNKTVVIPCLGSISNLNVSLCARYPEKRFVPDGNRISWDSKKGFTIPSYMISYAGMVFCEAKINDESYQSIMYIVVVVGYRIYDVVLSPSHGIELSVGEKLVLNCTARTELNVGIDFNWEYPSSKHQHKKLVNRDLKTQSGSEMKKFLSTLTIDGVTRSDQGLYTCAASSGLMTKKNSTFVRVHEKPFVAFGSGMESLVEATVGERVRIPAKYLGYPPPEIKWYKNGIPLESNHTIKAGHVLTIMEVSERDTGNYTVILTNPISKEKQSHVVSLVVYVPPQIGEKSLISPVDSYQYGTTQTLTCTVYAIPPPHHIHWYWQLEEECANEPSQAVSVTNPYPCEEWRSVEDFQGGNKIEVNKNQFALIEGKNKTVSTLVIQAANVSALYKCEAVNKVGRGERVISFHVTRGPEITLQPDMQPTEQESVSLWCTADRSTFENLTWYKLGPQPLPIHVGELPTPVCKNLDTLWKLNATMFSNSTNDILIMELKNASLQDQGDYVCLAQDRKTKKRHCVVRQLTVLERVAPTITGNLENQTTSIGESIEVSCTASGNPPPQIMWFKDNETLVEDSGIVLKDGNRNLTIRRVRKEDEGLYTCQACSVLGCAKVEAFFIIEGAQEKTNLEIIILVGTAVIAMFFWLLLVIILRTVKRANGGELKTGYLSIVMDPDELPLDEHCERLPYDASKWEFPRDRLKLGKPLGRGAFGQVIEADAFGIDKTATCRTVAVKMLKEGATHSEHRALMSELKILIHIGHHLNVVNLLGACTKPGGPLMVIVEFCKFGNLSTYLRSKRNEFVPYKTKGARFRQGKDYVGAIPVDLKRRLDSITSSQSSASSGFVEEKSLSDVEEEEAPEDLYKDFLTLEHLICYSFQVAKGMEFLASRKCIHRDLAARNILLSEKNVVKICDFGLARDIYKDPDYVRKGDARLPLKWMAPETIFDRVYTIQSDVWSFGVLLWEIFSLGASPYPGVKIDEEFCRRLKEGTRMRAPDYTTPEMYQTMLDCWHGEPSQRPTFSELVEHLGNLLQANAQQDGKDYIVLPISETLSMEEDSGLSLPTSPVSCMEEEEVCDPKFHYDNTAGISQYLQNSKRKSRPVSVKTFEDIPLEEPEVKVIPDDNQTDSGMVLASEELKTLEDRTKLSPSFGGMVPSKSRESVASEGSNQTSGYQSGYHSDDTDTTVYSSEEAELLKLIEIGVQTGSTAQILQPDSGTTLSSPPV
In words: LabChip (Caliper) kinase assay, KDR. The class given is biochemical. As to conditions: for inhibition at 0.01 µM: compound at 10 nM; for inhibition at 0.01 µM / inhibition at 0.1 µM: read-out: remaining kinase activity (in %) / percentage of inhibition; for inhibition at 0.1 µM: compound at 100 nM; for IC50: ATP at Km, read-out: CI50 (the source's name). The procedure:
as §4, §5, §6, §7, §8

Experimental findings from patent US8598132B2, “Glycosylated indolocarbazoles, method for obtaining same and uses thereof” (Universidad de Oviedo, priority 2008, dated 2013) are described below.

As for `C[C@@H]1O[C@@H](n2c3ccccc3c3c4c(c5c6ccccc6[nH]c5c32)C(=O)NC4=O)[C@H](O)[C@H](O)[C@H]1O` [formula (III), N^13-1′-β-L-rhamnosylarcyriaflavin], the results for the GI50 in the test with MDA-MB-231 (breast), with A549 (lung) and with HT29 (colon) were 4400 nM, 4180 nM and 2420 nM, respectively. The inhibition at 0.01 µM is 3% at FGFR1 and -7% on KDR. Further, the figures for the inhibition at 0.1 µM at FGFR1 and on KDR were 4% and 21%, respectively.
As to `C[C@@H]1O[C@@H](n2c3ccccc3c3c4c(c5c6ccccc6[nH]c5c32)C(=O)NC4=O)C[C@H](O)[C@H]1O` [formula (IV), N^13-1′-β-L-olivosylarcyriaflavin], the GI50 was found to be 14100 nM in the test with MDA-MB-231 (breast), 8790 nM in the test with A549 (lung) and 8790 nM with HT29 (colon). Further, the inhibition at 0.01 µM at FGFR1 was determined as 3%; on KDR it was 21%. Also, the inhibition at 0.1 µM on FGFR1 came to 21%; on KDR it was 68%.
Turning to `C[C@]12O[C@H](C[C@@H](O)[C@H]1O)n1c3ccccc3c3c4c(c5c6ccccc6n2c5c31)C(=O)NC4=O` [formula (IX), N^12-5′(S)-N^13-1′-(R)-L-digitoxosylarcyriaflavin], the GI50 with MDA-MB-231 (breast) turned out to be 8160 nM; in the test on A549 (lung), 5510 nM; in the test with HT29 (colon), 8160 nM. The IC50 on FGFR1 and at KDR was more than 10 nM throughout.
On to `C[C@@H]1O[C@@H](n2c3ccccc3c3c4c(c5c6ccccc6[nH]c5c32)C(=O)NC4=O)C[C@@H](O)[C@H]1O` [formula (V), N^13-1′-β-L-digitoxosylarcyriaflavin], for which the GI50 in the test on MDA-MB-231 (breast) was determined as 4190 nM; in the test on A549 (lung), 4410 nM; in the test with HT29 (colon), 6390 nM. Further, the inhibition at 0.01 µM on FGFR1 is 7%; at KDR, 28%. The inhibition at 0.1 µM on FGFR1 came to 34%; on KDR, 63%.
For `C[C@H]1O[C@@H](n2c3ccccc3c3c4c(c5c6ccccc6[nH]c5c32)C(=O)NC4=O)C[C@@H](O)[C@@H]1O` [formula (VI), N^13-1′-β-D-olivosylarcyriaflavin], the results for the GI50 in the test with MDA-MB-231 (breast), in the test on A549 (lung) and in the test with HT29 (colon) were 2430 nM, 2210 nM and 2160 nM, respectively. Also, the inhibition at 0.01 µM at FGFR1 amounted to 1%; at KDR it was 2%. The inhibition at 0.1 µM amounted to 25% on FGFR1 and 40% at KDR.
For `C[C@]12O[C@H]([C@H](O)[C@H](O)[C@H]1O)n1c3ccccc3c3c4c(c5c6ccccc6n2c5c31)C(=O)NC4=O` [formula (VII), N^12-5′(S)-N^13-1′-(R)-L-rhamnosylarcyriaflavin], the GI50 in the test with MDA-MB-231 (breast) amounted to 1350 nM; in the test with A549 (lung) it was 2040 nM; in the test on HT29 (colon) it was 2450 nM. In addition, the IC50 at FGFR1 came out at 8.9 nM; at KDR, 3.7 nM.
On to `C[C@]12O[C@H](C[C@H](O)[C@H]1O)n1c3ccccc3c3c4c(c5c6ccccc6n2c5c31)C(=O)NC4=O` [formula (VIII), N^12-5′(S)-N^13-1′-(R)-L-olivosylarcyriaflavin], for which the GI50 in the test with MDA-MB-231 (breast) turned out to be 7500 nM; in the test on A549 (lung), 5730 nM; with HT29 (colon), 11200 nM. At KDR, the IC50 came out at 0.55 nM.
In the case of `C[C@@H]1O[C@@H](n2c3ccccc3c3c4c(c5c6ccccc6[nH]c5c32)CNC4=O)[C@H](O)[C@H](O)[C@H]1O` [formula (XII), N^13-1′-β-L-rhamnosyl-k252c], the results for the GI50 with MDA-MB-231 (breast), in the test with A549 (lung) and in the test with HT29 (colon) were 1970 nM, 2840 nM and 2100 nM, respectively. In addition, the results for the inhibition at 0.01 µM on FGFR1 and on KDR were 1% and -1%, respectively. In addition, the inhibition at 0.1 µM on FGFR1 was 5%; on KDR, 6%.
Regarding `C[C@@H]1O[C@@H](n2c3ccccc3c3c4c(c5c6ccccc6[nH]c5c32)CNC4=O)C[C@H](O)[C@H]1O` [formula (XIII), N^13-1′-β-L-olivosyl-k252c], the GI50 turned out to be 1430 nM with MDA-MB-231 (breast), 1560 nM in the test on A549 (lung) and 1520 nM in the test on HT29 (colon). The inhibition at 0.01 µM is -1% at FGFR1 and 7% on KDR. Also, the figures for the inhibition at 0.1 µM at FGFR1 and at KDR were 7% and 48%, respectively.
Turning to `C[C@@H]1O[C@@H](n2c3ccccc3c3c4c(c5c6ccccc6[nH]c5c32)CNC4=O)C[C@@H](O)[C@H]1O` [formula (XIV), N^13-1′-β-L-digitoxosyl-k252c], the GI50 in the test with MDA-MB-231 (breast) is 2490 nM; with A549 (lung) it was 3400 nM; in the test on HT29 (colon), 3400 nM. In addition, the inhibition at 0.01 µM on FGFR1 and on KDR was 1% throughout. In addition, the inhibition at 0.1 µM at FGFR1 worked out at 5%; at KDR it was 16%.
For `C[C@]12O[C@H]([C@H](O)[C@H](O)[C@H]1O)n1c3ccccc3c3c4c(c5c6ccccc6n2c5c31)CNC4=O` [formula (XVI), N^12-5′(S)-N^13-1′-(R)-L-rhamnosyl-k252c], the GI50 in the test on MDA-MB-231 (breast) came out at 590 nM; in the test with A549 (lung) it was 610 nM; in the test on HT29 (colon) it was 870 nM.
Regarding `C[C@]12O[C@H](C[C@H](O)[C@H]1O)n1c3ccccc3c3c4c(c5c6ccccc6n2c5c31)CNC4=O` [formula (XVII), N^12-5′(S)-N^13-1′-(R)-L-olivosyl-k252c], the GI50 in the test on MDA-MB-231 (breast) is 1050 nM; with A549 (lung), 1020 nM; with HT29 (colon) it was 1210 nM. For the same molecule, the IC50 at FGFR1 was more than 10 nM.
